Laboratory results taken from US20080234199A1, “Chemical Compounds” (Smithkline Beecham Corporation, priority 2005, published 2008).

Row | melting point | Compound
1 | 280 to 281 °C | CCC(=C(c1ccc(O)cc1)c1ccc(O)cc1)c1ccc(/C=C/C(=O)O)cc1 [Example 1, (2E)-3-{4-[1-ethyl-2,2-bis(4-hydroxyphenyl)ethenyl]phenyl}-2-propenoic acid]
2 | 158 to 159 °C | CCC(=C(c1ccc(O)cc1)c1ccc(O)cc1)c1ccc(OCCO)c(OC)c1 [Example 27, 4,4′-{2-[4-[(2-hydroxyethyl)oxy]-3-(methyloxy)phenyl]-1-butene-1,1-diyl}diphenol]
